For orientation: EC50 means the concentration at which the effect is half-maximal.

Test [1] relates to HyNaC2/3/5. As to conditions: Xenopus oocytes, ref [3], cited from earlier work.
In a further test the test system is HyNaCs. As to conditions: ref [1–3]; cited from earlier work. From the text:
Electrophysiological properties of HyNaCs have been successfully characterized in Xenopus laevis oocytes [[1–3],[6]]. While expression in oocytes typically results in large current amplitudes of the foreign ion channel, expression in mammalian expression systems is better suited to study, for example, trafficking and regulation of an ion channel. In this study, we, therefore, expressed HyNaC2/3/5 ...

For test [2], the system named is HyNaC2/3/5. Briefly: Whole-cell patch clamp, current density, HEK 293 cells expressing HyNaC2/3/5 (native or codon-optimized). The class given is cell-based, Hydra magnipapillata. To be noted: for current density: holding potential −70 mV, mean ± SD. Here is the method:
(§1) Cells were grown at 37 °C in a humidified atmosphere with 5% CO2. HEK 293 T and COS-7 cells were maintained as an adherent monolayer in Dulbecco’s modified Eagle’s medium supplemented with 10% FBS and 2 mM L-glutamine. Cells were passaged every 2–3 days.
(§2) Holding potential was −70 mV.
(§3) Statistical significance was defined as p < 0.05.

Test [3] relates to HyNaC2/3/5. Briefly: Whole-cell patch clamp, current density, COS-7 cells expressing HyNaC2/3/5 (native or codon-optimized). As to conditions: for current density: holding potential −70 mV, mean ± SD. It is filed as cell-based, Hydra magnipapillata. As to the method: as §1, §2, §3
Test [4] has as its system HyNaC2/3/5. The experiment in a line: Concentration-response curve (whole-cell patch clamp), codon-optimized HyNaC2/3/5 in HEK cells. It is filed as cell-based, Hydra magnipapillata. As to conditions: codon-optimized HyNaC2/3/5, HEK cells, −70 mV, pH 7.4, RT, mean ± S.D., n = 8, read-out: apparent affinity (EC50, Hill fit).
From the text: as §2
where I is the current, [X] is the peptide concentration, Imin and Imax are the […] currents, respectively, EC50 is the concentration at which 50% of the maximal current is obtained, and H is the Hill coefficient (GraphPad Prism 6.0).
In general terms: The patch-clamp technique gives a direct electrical read-out from membranes.

For test [5], the system named is HyNaC2/3/5. The experiment in a line: Ca^2+ imaging (Fura-2), HEK 293 cells expressing HyNaC2/3/5. It is filed as cell-based, Hydra magnipapillata. To be noted: 1 µM Hydra-RFamide II, Fura-2 340/380 nm, 6 experiments, 2 transfections, ionomycin 1 µM positive control. As to the method: For Ca^2+ imaging, cells were grown on coverslips and transfected as described for electrophysiological recordings. Approximately 48 h after transfection, cells were loaded with 2 µM of Fura-2-AM (Molecular Probes) for 30 min at 37 °C. Subsequently, the coverslips were mounted in a cell chamber and perfused with bath solution. Fura-2 was excited at 340/380 nm and the emission was recorded between 470 and 550 nm on an inverted microscope (IX71, Olympus, Chromaphor) using a sensicam CCD camera (PCO imaging). Acquisition and data analysis were performed using Till Vision real-time imaging software (Till Photonics). At the end of each experiment, a bath solution containing 1 µM ionomycin was used as a positive control.
as §3

For test [6], the system named is HyNaC2/3/5 (HA-tagged or untagged subunits). The experiment in a line: Whole-cell current density of codon-optimized HyNaC2/3/5 with or without C-terminal HA-tags. To be noted: RFamide II 1 µM, mean ± S.E.M.
Procedure: The tags were separated from the coding sequence by a flexible linker ([sequence]). Fusion was performed in a two-step PCR protocol. For HyNaC2, the forward primer was 5’-[sequence]-3’, and the reverse primers were 5’-[sequence]-3’ and 5’-[sequence]-3’. For HyNaC3, the forward primer was 5’-[sequence]-3’, and the reverse primers were 5’-[sequence]-3’ and 5’-[sequence]-3’. And for HyNaC5, the forward primer was 5’-[sequence]-3’, and the reverse primers were 5’-[sequence]-3’ and 5’-[sequence]-3’. Constructs were cloned into pcDNA3.1(-) using BamHI and BbsI (HyNaC2) or BamHI and KpnI (HyNaC3 and HyNaC5). The sequences of the constructs were confirmed by sequencing of the full coding sequence (Eurofins Genomics).
Codon optimization of HyNaC2, HyNaC3, and HyNaC5 to Homo sapiens codon usage preferences was performed by BioCat GmbH (Heidelberg, Germany). The cDNA was synthesized with a C-terminal flexible linker ([sequence]) followed by three HA-tags and cloned into pcDNA3.1(-) using the same restriction sites as above. To create the codon-optimized constructs without linkers and tags, PCR was performed to insert an additional restriction site of either BbsI (HyNaC2) or KpnI (HyNaC3 and HyNaC5) between the end of the HyNaC coding sequence and the start of the linker. The resulting constructs were digested with the respective restriction enzymes and cloned into pcDNA3.1(-). The successful removal of linkers and tags was confirmed by sequencing (Eurofins Genomics).
Cells were transfected with 0.6 µg each of HyNaC2, HyNaC3, and HyNaC5 plus 0.2 µg of GFP per 35 mm dish using calcium phosphate transfection. Approximately 48 h after transfection, the culture dish with attached cells was mounted on the stage of an inverted phase-contrast microscope (IX71, Olympus). The recording chamber was perfused with the following bath solution (in mM): NaCl 128, KCl 5.4, HEPES 10, glucose 5.5, MgCl2 1, CaCl2 2; pH was adjusted with NaOH to 7.4 at RT (22–25 °C).
Patch-clamp experiments were performed in the whole-cell configuration, using an Axon-200B amplifier (Molecular Devices; San Jose, CA, USA) and an Axon Digidata 1440 A acquisition system controlled by the Clampex 10.0 software (Molecular Devices). Signals were low pass filtered at 1 kHz and digitized at 4 kHz. Micropipettes (4–6 MΩ) were prepared from borosilicate glass capillaries with a micropipette puller (DMZ-Universal Electrode Puller; Zeitz Instruments, Martinsried, Germany) and filled with an intracellular solution containing (in mM): NaCl 10, KCl 121, HEPES 10, EGTA 5, MgCl2 2. Holding potential was −70 mV. Capacitance and series resistances were compensated electronically at 80% and digital data were stored in a compatible PC for off-line analysis using Clampfit 10.0 software (Molecular Devices).
Electrophysiological data were analyzed offline using Clampfit 10.0 (Molecular Devices). Current density was obtained by dividing the maximal current amplitude (pA) by cell capacitance (pF). Data are presented as mean ± S.D., except for data in Figure 5, which are shown as mean ± S.E.M. The concentration–response curve for RFamide-II and codon-optimized HyNaCs was fitted to a Hill function: I=Imin+ Imax−Imin/1 + X/EC50^H
Statistical analysis was done using an unpaired t-test to compare two conditions and a one-way ANOVA (GraphPad Prism 6.0) for more than two conditions. Statistical significance was defined as p < 0.05.

Read-outs that look alike come from different tables or passages of the source.

On to pQWLGGRFamide [Hydra-RFamide I], for which, in the test on HyNaC2/3/5 [1] (10 µM Hydra-RFamide I), the response in oocytes entry is reported as “maximal response”. In addition, the “activation of HyNaCs” value in the test with HyNaCs is given as “directly activated”. The “type of current elicited” value in the test with HyNaC2/3/5 [2] (native HyNaC2/3/5, HEK cells, 10 µM RFamide I) is recorded as “sustained inward currents”. Also, the current density with HyNaC2/3/5 [2] (native HyNaC2/3/5, HEK cells, 10 µM RFamide I, pH 7.4, RT (22–25 °C), n = 12) is 42 ± 10 pA/pF; in the test on HyNaC2/3/5 [3] (native HyNaC2/3/5, COS-7 cells, 10 µM RFamide I, pH 7.4, RT (22–25 °C), n = 12, p < 0.001 vs HEK), 5 ± 2 pA/pF. Moreover, in the test with HyNaC2/3/5 [3] (codon-optimized HyNaC2/3/5, COS-7 cells, text: 1 µM Hydra-RFamide I (Figure 3B legend: 10 µM), n = 10, p = 0.87 (unpaired t-test)), the “current amplitude compared with Hydra-RFamide II” value is listed as “comparable current amplitudes”.
“pQWFNGRFamide [Hydra-RFamide II, neuropeptide of the Hydra nervous system]”: the response in oocytes result in the test with HyNaC2/3/5 [1] (1 µM Hydra-RFamide II) was “maximal response”. The half-maximal effective concentration (EC50) in the test on HyNaC2/3/5 [4] amounted to 140 ± 30 nM. The “intracellular Ca^2+ signals” value with HyNaC2/3/5 [5] (HEK 293 cells expressing codon-optimized HyNaC2/3/5, n = 48 cells, p < 0.001 vs native) is “robust intracellular Ca^2+ signals”. Further, the “intracellular Ca^2+ increase” value in the test on HyNaC2/3/5 [5] (HEK 293 cells expressing native HyNaC2/3/5, n = 36 cells) was “hardly increased intracellular Ca^2+ above background”. Moreover, the “activation of HyNaCs” value in the test on HyNaCs is “directly activated”. Besides, the current density in test [6] (HyNaC2 carried the HA-tag, n = 7–8, p < 0.05 vs untagged) was 49 ± 9 pA/pF; in test [6] (HyNaC3 carried the HA-tag, n = 7–8, p < 0.05 vs untagged), 57 ± 8 pA/pF; in test [6] (HyNaC5 carried the HA-tag, n = 7–8, p < 0.05 vs untagged), 50 ± 9 pA/pF; in test [6] (all subunits carrying an HA-tag, n = 7, p < 0.0001) it was 22 ± 7 pA/pF; in test [6] (no subunit carried the tag, n = 7–8), 84 ± 9 pA/pF; in the test with HyNaC2/3/5 [2] (codon-optimized HyNaC2/3/5, HEK cells, 1 µM Hydra-RFamide II, pH 7.4, RT, n = 15, p < 0.001 vs native), 113 ± 9 pA/pF. Further, the current density is on record as 17 ± 9 pA/pF in the test with HyNaC2/3/5 [3] (codon-optimized HyNaC2/3/5, COS-7 cells, 1 µM Hydra-RFamide II, pH 7.4, RT, n = 10, p < 0.001 vs native) and 2 ± 3 pA/pF in the test on HyNaC2/3/5 [3] (native HyNaC2/3/5, COS-7 cells, text: 1 µM Hydra-RFamide II (Figure 3 legend: native trace 10 µM RFamide I), n = 12). The “type of current elicited” value is “sustained inward currents” with HyNaC2/3/5 [2] (codon-optimized HyNaC2/3/5, HEK cells, 1 µM Hydra-RFamide II) and “sustained inward currents” in the test on HyNaC2/3/5 [3] (codon-optimized HyNaC2/3/5, COS-7 cells, 1 µM Hydra-RFamide II). Besides, the “current amplitude compared with Hydra-RFamide I” value in the test on HyNaC2/3/5 [3] (codon-optimized HyNaC2/3/5, COS-7 cells, text: 10 µM Hydra-RFamide II (Figure 3B legend: 1 µM), n = 10, p = 0.87 (unpaired t-test)) was “comparable current amplitudes”.
